Source: PubChem BioAssay (NCI)
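Protocol summary: plate cells (96-well), add compound at 5 concentrations, incubate 48 h, interpolate endpoints linearly. Definition used: TGI = concentration required for complete inhibition of growth.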

Legend:
Assay in all cases: NCI-60 cell line screen, 48 h
[1] = test system: DU-145 prostate
[2] = test system: MOLT-4 leukemia
[3] = test system: OVCAR-8 ovarian
[4] = test system: SW-620 colon
[5] = test system: M14 melanoma
[6] = test system: RXF 393 renal
[7] = test system: T-47D breast
[8] = test system: OVCAR-4 ovarian
[9] = test system: HS 578T breast
[10] = test system: NCI/ADR-RES ovarian

SMILES | TGI [1] [µM] | TGI [2] [µM] | TGI [3] [µM] | TGI [4] [µM] | TGI [5] [µM] | TGI [6] [µM] | TGI [7] [µM] | TGI [8] [µM] | TGI [9] [µM] | TGI [10] [µM]
COc1cccc(-c2ccc3c4c2O[C@H]2c5[nH]c6ccccc6c5C[C@@]5(O)[C@@H](C3)N(CC3CC3)CC[C@]425)c1 | 6.91 | 9.34 | 3.11 | 4.77 | 3.27 | 3.03 | 4.23 | 3.27 | 3.33 | 5.21
CCCCCCCCCCCCCCCCCCNc1ccn(C2OC(COP(=O)(O)OCC3CCC(n4cnc5c(=O)[nH]cnc54)O3)C(O)C2O)c(=O)n1 (stereo not given) | > 100 | > 100 | > 100 | > 100 | > 100 | > 100 | > 100 | > 100 | > 100 | > 100
CNc1ccc(-c2nc3cc(C)ccc3o2)cc1 | > 100 | > 100 | > 100 | > 100 | > 100 | 79.8 | > 100 | > 100 | > 100 | > 100
O=C1Sc2ccc(Br)cc2C(=O)Sc2ccccc21 | 25.5 | 19.9 | 24 | 67.7 | 26.6 | 12.4 | 31 | 29.8 | 39.3 | 60
COC(=O)C1=C(C)NC2(O)C=CC(=O)C3C(=O)N(c4ccccc4)C(=O)C132 (stereo not given) | > 100 | > 100 | > 100 | > 100 | > 100 | > 100 | > 100 | > 100 | > 100 | > 100
CCCCCC(=O)N[C@@H](c1ccccc1)C(O)C(=O)OC1C[C@@]2(O)C(OC(=O)c3ccccc3)C3[C@](C)(C(=O)[C@H](O)C(=C1C)C2(C)C)C(OC1OCC(O)C(O)C1O)C[C@H]1OC[C@@]31OC(C)=O (stereo not given in full) | 13.4 | > 100 | > 100 | > 100 | > 88.1 | > 41 | > 100 | > 100 | 8.23 | > 100
O=c1[nH]nc(-c2ccccc2)n1/N=C/c1c[nH]c2ccccc12 | > 100 | > 100 | > 100 | > 100 | > 100 | > 100 | > 100 | > 100 | > 100 | > 100
Cc1ccc(N=Nc2c(O)ccc3cc(S(=O)(=O)O)ccc23)c(C)c1 | > 100 | > 100 | > 100 | > 100 | > 100 | > 100 | > 100 | > 100 | > 100 | > 100
COC(=O)C(C)(N=Cc1ccccc1)c1ccccc1 (stereo not given) | > 100 | > 100 | > 100 | > 100 | > 100 | > 100 | > 100 | > 100 | > 100 | > 100
CC(C(=O)ON1C(=O)CCC1=O)c1ccc(C(=O)c2ccccc2)s1 (stereo not given) | > 100 | > 100 | > 100 | > 100 | > 100 | > 100 | > 100 | > 100 | > 100 | > 100
COc1ccc2cc1Oc1ccc(cc1)C(Sc1ccccc1)CCOC(=O)CC2 (stereo not given) | > 100 | > 100 | > 100 | > 100 | > 100 | > 100 | > 100 | > 100 | > 100 | > 100
Cn1c(=O)c2c(nc3n(Cc4ccccc4)c(=O)c(NCCBr)cn23)n(C)c1=O | > 100 | > 100 | 33.8 | > 100 | > 100 | 35 | 52.9 | 49.2 | 76.6 | 60.2
